Data on 1 compound can be found in patent US12344610B2, “APOL1 inhibitors and methods of use” (Maze Therapeutics, Inc., priority 2022, dated 2025).

The subject of this test is human immortalized podocytes inducibly expressing APOL1 G2. The test can be described thus: APOL1 G2 podocyte cell rescue assay (Example B4). In kind it is cell-based. Particulars: Homo sapiens, differentiated human podocytes, doxycycline-induced APOL1 G2, CellTiter-Glo; geometric mean of at least 2 runs; † = single run. As to the method:
APOL1 G2 human immortalized podocyte viability assay for measurement of cytotoxicity reversal by compound (APOL1 G2 podocyte cell rescue assay).
Cell Handling. The hTERT-immortalized kidney podocyte cell line was procured from the laboratory of Dr. Moin Saleem at the University of Bristol, UK (Nephrology 17 (2012) 525-531; doi:10.1111/j.1440-1797.2012.01619.x; herein incorporated by reference in its entirety). Parental and engineered cell lines were cultured in RPMI 1640 media (Gibco, 11875093) with 10% Tet System Approved FBS (Takara, 631101). The engineered cell line was maintained under selection (2.5 μg/mL puromycin). Cell lines were maintained and engineered at 33° C. Cell cultures were transferred to 37° C. for 10 to 14 days to initiate differentiation (Nephrology 17 (2012) 525-531; doi:10.1111/j.1440-1797.2012.01619.x; herein incorporated by reference in its entirety). During this time, media was refreshed every 3 days. After differentiation, cells engineered to inducibly express APOL1 G2 were used in the podocyte cell rescue assay.
Cell Line Engineering. The APOL1 G2 coding sequence was cloned into the pLVX-TetOne-Puro vector and verified by sequencing (Genscript Biotech). This construct was designed to have a C-terminal HiBiT tag. Lentiviral packaging of the vector was conducted using the Lenti-X Packaging Single Shots (VSVG) system according to manufacturer instructions (Takara Bio, 631275). A stable cell line was generated by transfecting the parental podocyte cell line with the concentrated virus in media with 5 μg/mL polybrene (Sigma, TR-1003-G). Media was changed the following day. 72 hours post transfection, 2.5 μg/mL puromycin (Gibco, A1113803) was added to the cells and cells were maintained in selection media thereafter. This APOL1 G2 stable cellular pool was subjected to a stringent limiting dilution to generate a pure stable clone (Podocyte/pLVX-TetOne APOL1 G2/clone D10) capable of inducible expression of APOL1 G2.
Assay Setup. T175 flasks containing differentiated podocytes engineered to inducibly express APOL1 G2 (Podocyte/pLVX-TetOne APOL1 G2/clone D10) were washed once with 15 mL of DPBS (Thermo Fisher, 14190-144). These flasks were each trypsinized with 3 mL of prewarmed TrypLE Express (Gibco, 12605-010) and incubated at 37° C. with 5% CO2 until cells detached and neutralized with 7 mL of prewarmed assay media (RPMI 1640 media with 10% Tet System Approved FBS, no selection agent). Cells were pooled and the resulting suspension was gently mixed. The cell suspension was counted using a Countess Cell Counting Chamber (Invitrogen) and the cell concentration was adjusted to 240,000 cells/mL using assay media. Next, 25 μL of a 480 ng/mL working stock of doxycycline diluted in assay media was added to an assay ready plate. All experiments were performed in 384-well, white, solid bottom, tissue culture treated plates (Greiner, 781080). The assay ready compound plates were generated with duplicate 8-point compound dilution series that consisted of 3-fold stepwise dilutions (0.4% DMSO final). The plates were centrifuged at 1000 rpm for 1 minute. 25 μL of diluted cell suspension (final cell density=6,000 cells/well) was added to each well. The plates were centrifuged again at 1000 rpm for 1 minute and then incubated in a humidified incubator (37° C. with 5% CO2). After 95 hours, the assay plates were removed from the incubator and allowed to equilibrate to room temperature for 1 hour. CellTiter-Glo® reagent (Promega, G7570) was prepared according to the manufacturer's instructions. 25 μL of CellTiter-Glo® reagent was added to each well. Assay plates were sealed with foil and mixed for 5 minutes on an orbital shaker (500 rpm) to induce cell lysis. Plates were centrifuged at 1000 rpm for 1 minute. 10 minutes after CellTiter-Glo® reagent addition, an Envision plate reader (Perkin Elmer) was used to measure the luminescent signal of each assay plate. Collaborative Drug Discovery software was utilized for graphing data. […]

As to `CN(c1c(F)cc(OCCN2CCC3(CC2)C(=O)Nc2ccc(Cl)cc23)cc1F)S(C)(=O)=O` [Compound 127, N-[4-(2-{5-chloro-2-oxo-1,2-dihydrospiro[indole-3,4′-piperidin]-1′-yl}ethoxy)-2,6-difluorophenyl]-N-methylmethanesulfonamide], the EC50 was determined as 5.39 nM. That is a single-digit nanomolar value.
